Measured values taken from patent publication US6103732A, “Carboxylic acid derivatives, their production and use” (BASF Aktiengesellschaft, priority 1996, dated 2000).
Like-named read-outs stand apart in the source and are kept apart here.

What was measured:
human ETA receptor = molecular target: T1, human ETA receptor (Homo sapiens, UniProt P25101); test: Receptor binding assay, ETA ([125I]-ET1, membranes of ETA receptor-expressing CHO cells)
T1 construct: expressed in transfected cells; host or cells: CHO cells
T1 sequence (P25101 21-427): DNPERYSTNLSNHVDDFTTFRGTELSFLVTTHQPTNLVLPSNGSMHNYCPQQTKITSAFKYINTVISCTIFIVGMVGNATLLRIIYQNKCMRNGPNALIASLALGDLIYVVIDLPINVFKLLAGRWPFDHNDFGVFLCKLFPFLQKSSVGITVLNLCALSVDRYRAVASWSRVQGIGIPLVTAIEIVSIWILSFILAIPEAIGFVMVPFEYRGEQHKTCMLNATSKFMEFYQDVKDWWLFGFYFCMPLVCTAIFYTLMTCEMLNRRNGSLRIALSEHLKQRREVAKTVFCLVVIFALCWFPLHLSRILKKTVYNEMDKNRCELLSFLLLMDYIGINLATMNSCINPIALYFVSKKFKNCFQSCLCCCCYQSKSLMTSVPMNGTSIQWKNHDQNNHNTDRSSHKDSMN
Protocol: (§1) Cloned human ETA receptor-expressing CHO cells and guinea pig cerebellar membranes with >60% ETB compared with ETA receptors were used for binding studies.
The ETA receptor-expressing CHO cells were grown in F12 medium containing 10% fetal calf serum, 1% glutamine, 100 E/ml penicillin and 0.2% streptomycin (Gibco BRL, Gaithersburg, Md., USA). After 48 h, the cells were washed with PBS and incubated with 0.05% trypsin-containing PBS for 5 min. Neutralization was then carried out with F12 medium and the cells were collected by centrifugation at 300×g. To lyse the cells, the pellet was briefly washed with lysis buffer (5 mM tris-HCl, pH 7.4 with 10% glycerol) and then incubated at a concentration of 10^7 cells/ml of lysis buffer at 4° C. for 30 min. The membranes were centrifuged at 20,000×g for 10 min, and the pellet was stored in liquid nitrogen.
(§2) The nonspecific binding was determined with 10^-7 M ET1. After 30 min, filtration was carried out through GF/B glass fiber filters (Whatman, England) in a Skatron cell collector (Skatron, Lier, Norway) to separate free and bound radioligands, and the filters were washed with ice-cold tris-HCl buffer, pH 7.4 with 0.2% BSA. The radioactivity collected on the filters was quantified using a Packard 2200 CA liquid scintillation counter.

ETB receptor = molecular target: T2, ETB receptor (Cavia porcellus, UniProt H0VTF3); test: Receptor binding assay, ETB ([125I]-RZ3, guinea pig cerebellar membranes)
T2 construct: Guinea pig cerebella were homogenized in a Potter-Elvejhem homogenizer; from tissue; host or cells: guinea pig cerebellum (membranes)
T2 sequence (H0VTF3 27-415): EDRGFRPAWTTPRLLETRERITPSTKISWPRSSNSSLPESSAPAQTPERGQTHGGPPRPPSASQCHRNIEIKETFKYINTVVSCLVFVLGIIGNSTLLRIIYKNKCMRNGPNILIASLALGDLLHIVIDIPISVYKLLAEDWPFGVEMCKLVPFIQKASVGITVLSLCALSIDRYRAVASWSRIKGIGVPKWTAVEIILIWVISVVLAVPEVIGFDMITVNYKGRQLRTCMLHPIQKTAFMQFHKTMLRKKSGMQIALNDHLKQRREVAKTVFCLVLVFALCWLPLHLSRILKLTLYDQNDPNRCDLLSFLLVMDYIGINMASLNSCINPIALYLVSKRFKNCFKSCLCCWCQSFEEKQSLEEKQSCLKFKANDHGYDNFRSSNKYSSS
Protocol: as §1
Guinea pig cerebella were homogenized in a Potter-Elvejhem homogenizer and were obtained by differential centrifugation at 1,000×g for 10 min and repeated centrifugation of the supernatent at 20,000×g for 10 min.
as §2

[1] = cloned human ETA receptor-expressing CHO cell membranes, 25 pM [125I]-ET1, 30 min, read-out: Receptor binding data (Ki values) ETA
[2] = guinea pig cerebellar membranes (>60% ETB compared with ETA receptors), 25 pM [125I]-RZ3, 30 min, read-out: Receptor binding data (Ki values) ETB

Row | Ki (human ETA receptor; [1]) [µM] | Ki (ETB receptor; [2]) [µM] | SMILES | Ki (human ETA receptor) [µM] | Ki (ETB receptor) [µM]
1 | – | – | COc1cc(OC(C(=O)O)C(OC)(c2ccccc2)c2ccccc2)nc(OC)n1 (centres unmarked) [Compound I-1, 2-(2,6-Dimethoxy-4-pyrimidinyloxy)-3-methoxy-3,3-diphenyl-propionic acid] | 0.038 | 8
2 | 3.3 | > 10 | COC(c1ccccc1)(c1ccccc1)C(Oc1cc(C(F)(F)F)nc(C(C)(C)C)n1)C(=O)O (centres unmarked) [Compound I-91, 2-(2-tert-Butyl-6-trifluoromethyl-4-pyrimidinyloxy)-3-methoxy-3,3-diphenylpropionic acid] | – | –
3 | 0.5 | 4 | COC(c1ccccc1)(c1ccccc1)C(Oc1cc(C)c2ccccc2n1)C(=O)O (centres unmarked) [Compound I-166, 2-(4-Methyl-2-quinolinyloxy)-3-methoxy-3,3-diphenylpropionic acid] | – | –
4 | 3 | > 7 | COC(c1ccccc1)(c1ccccc1)C(Oc1ccc2ccccc2n1)C(=O)O (centres unmarked) [Compound I-167] | – | –
